Assays:
Recombinant p62 protein = Recombinant p62 protein (Homo sapiens, UniProt Q13501); experiment: Surface plasmon resonance (SPR) compound binding to p62; conditions: 15° C
Method: Recombinant p62 protein was buffer exchanged into Biacore SPR running buffer (Cytiva 100671) using the Slide-A-Lyzer Mini Dialysis system 7K MWCO (Thermo Fisher Scientific, Cat no. 69560). The final protein concentration was determined using the Nanodrop One spectrophotometer (Thermo Fisher Scientific, cat no. ND-ONE-W), with calibration for the dialysis buffer.
The prepared protein was diluted in sodium acetate buffer (NaAc, pH 5.5, Cytiva) to concentrations ranging from approximately 0.25-40 μg/mL. Post-immobilization, the protein required approximately 16 hours of equilibration in running buffer supplemented with 1% DMSO at 15° C. to ensure adequate surface equilibration and protein reorganization.
All SPR experiments were conducted at a constant temperature of 15° C. The SPR chip surface was activated using EDC/NHS for a contact time of 6-10 min at a flow rate of 10 μL/min. This was followed by protein immobilization for 2100 seconds and ethanolamine capping for 420 seconds, both at the same flow rate. Immediately after immobilization, the NH2-REEE peptide was analyzed in Single Cycle Kinetics mode (SCK) to verify surface activity, ensuring it binds the sample with the published affinity (˜20 μM by SPR).
For general compound binding studies, experiments were performed at 15° C. using a running buffer composed of 10 mM HEPES, 150 mM NaCl, 1 mM DTT, 0.05% Tween 20, and 1% DMSO at pH 7.4. The test compound was initially prepared at a 20 mM concentration in DMSO and subsequently titrated in 2-fold dilutions. For each assay, 2 μL of the compound was mixed with 198 μL of the running buffer, and the mixture was thoroughly pipetted approximately 15 times for homogenization.
A series of blank injections (0 μM concentration) were included for double referencing, with at least 8 or 16 per plate depending on the format. Typical injection parameters were 120 seconds for association and 180 seconds for dissociation at a flow rate of […]. A four-point solvent correction was prepared with DMSO concentrations ranging from 2% to 0.5% in the buffer. Post each compound injection, the system's needles were washed with 50% DMSO.
Analysis of the SPR data was conducted using the Cytiva Evaluation software. The binding levels at the late time-point of each interaction were corrected for reference, then normalized to percentage bound values to account for variations in immobilization levels, protein molecular weight, and compound molecular weight.
Compound binding studies were carried out according to experimental procedures above and SPR % occupancy was determined and summarized in Table 7.

p62 puncta = p62 puncta immunocytochemistry imaging in HeLa cells; type: cell-based; conditions: 24 hours treatment, relative to vehicle control (DMSO)
Method: HeLa cells were seeded in coated 96-well plates (10,000 cells) and allowed to adhere overnight. After 24 hours of treatment with either vehicle (DMSO) or test compounds, the media was discarded, and cells were rinsed with ice-cold 1×PBS before fixation by 4% formaldehyde or paraformaldehyde for 20 min. Cells were then washed with 1×PBS and permeabilized with 0.1% Triton X-100 in PBS for 20 min and blocked with Blocking Buffer in PBS for 1 hour. The cells were incubated thereafter for 1 hour with anti-p62 primary antibody in Blocking Buffer, followed by incubation with secondary antibody for 1 hour. DAPI dye was used to visualize nuclei of fixed cells. The blocking buffer used were 5% Fetal Bovine Serum (FBS, ThermoFIsher Scientific, 10270106) and Li-cor Intercept (PBS) Blocking Buffer (Li-cor, 927-70001). The primary antibody used was mouse anti-p62 primary antibody (Novus Biologicals, H00008878-M01). The secondary antibodies used were goat anti-mouse Alexa Fluor Plus 488 secondary antibody (Invitrogen, GOXMS) and goat anti-mouse Alexa Fluor 488 secondary antibody (Invitrogen, A-11029). The DAPI dyes used were DAPI dye (Invitrogen, 62248) and DAPI dye (Invitrogen, D1306).
For the EVOS M7000 System, cells were imaged on the EVOS M7000 microscope using a 20× air objective (Nikon, N.A 0.45). DAPI and p62 channels were illuminated with LED light cubes using integrated hard-coated filter sets for DAPI (357/447 nm) and GFP (470/525 nm) respectively. Images were analysed for p62 puncta count on the Celeste 6.0 software.
For the Operetta CLS System, cells were imaged on the Operetta CLS using a 63× water objective on the DAPI and Alexa 488 channels. Images were analysed for p62 puncta count on the Harmony 5.1 software.
HeLa cells were treated with compounds for 24 hours to evaluate the effect of these compounds on p62 puncta activity. The resulting changes in levels of p62 puncta were assessed by imaging, either on the EVOS M7000 or Operetta CLS systems as described in experimental procedures. The fold change of p62 puncta levels induced by compound treatment relative to vehicle control (DMSO) was determined and summarized in Table 10.

LC3 protein = experiment: LC3 lipidation (LC3-II/LC3-I) assay by Western blot in HeLa cells; type: cell-based; conditions: 24 hours treatment, relative to vehicle control (DMSO)
Method: (§1) HeLa cells were seeded in 6-well plates (700,000 cells) and allowed to adhere overnight. Media was replaced one hour before administering either vehicle (DMSO) or test compounds. After 24 hours of treatment, the media was discarded, and cells were rinsed once with ice-cold 1×PBS before detached from plates with ice-cold RIPA Lysis and Extraction Buffer (Thermo Fisher Scientific) which was supplemented with protease and phosphatase inhibitors. The resulting cell suspensions were transferred to pre-chilled microcentrifuge tubes, incubated on ice for 20 min with intermittent mixing and then centrifuged at 12,000 rpm for 20 min at 4° C. The supernatants were then aspirated slowly and transferred into new tubes kept on ice. The protein concentration in the samples was determined using BCA kit (Thermo Fisher Scientific) as per manufacturer's instructions.
(§2) For the p62 oligomerization and LC3 lipidation assays, cell lysates were prepared using RIPA buffer supplemented with 2% SDS and benzonase (Sigma). The lysates were then combined with 4× Laemmli protein sample buffer (Bio-Rad), heated at 70° C. for 10 min and subjected to a brief centrifugation of 10-15 seconds.
(§3) For p62 oligomerization and LC3 lipidation assays, lysates containing 30 μg of protein and for BRD4 and FKBP12(F36V) degradation assays, lysates containing 20 μg of protein, were loaded slowly into the wells of 4-20% gradient Tris-glycine gels (Bio-Rad). The gels were run at 100V until completion and transferred onto PVDF membranes. Membranes were blocked using 5% milk in TBS-Tween (0.1%) buffer at room temperature for 1 hour. The membranes were incubated with primary antibody in 5% milk-TBST with shaking, overnight at 4° C. The primary antibodies used were: p62 (Novus Biologicals 2C11, H00008878-MO1), LC3A/B (Cell Signalling Technology D3U4C, 12741S), FKBP12 (Abcam ab24373), BRD4 (Cell Signalling Technology E2A7X, 13440S), GAPDH (Cell Signalling Technology D4C6R, 97166S), and β-Actin (Proteintech 66009-1-Ig). Following primary antibody incubation, membranes were washed thrice with TBST 10 min before and after incubation with secondary-HRP conjugated antibody in 5% milk-TBST for 1 hour at room temperature. The secondary antibodies used were: Anti-Mouse IgG HRP Conjugate (Promega W4021B) and Anti-Rabbit IgG HRP Conjugate (Promega W4011). For the p62 oligomerization assay, the total protein levels were assessed using Ponceau staining (Thermo Fisher Scientific) of PVDF membrane as per recommendation by manufacturer's guidelines.
(§4) Imaging was acquired using SuperSignal™ West Pico PLUS Chemiluminescent Substrate (Thermo Fisher Scientific) with iBright Invitrogen FL100 imaging system. Band signal intensity, reflective of protein concentrations, were quantified using Invitrogen™ iBright™ Analysis and Image J software.
HeLa cells were treated with compounds for 24 hours to evaluate the effect of these compounds on LC3-II/LC3-I levels, a measure of autophagy activation. The changes in levels of LC3-I, LC3-II and […] (loading control) were assessed by Western blotting, as described in experimental procedures. The fold increase of LC3-II/LC3-I levels induced by compound treatment relative to vehicle control (DMSO) was determined and summarized in Table 9. Specifically, FIGS. 3A-C show Western blot images and their corresponding quantification showing the lipidation levels of LC3 protein (LC3-II/LC3-I) by 24 hours compound treatments at listed concentrations, relative to vehicle control (DMSO) in HeLa cells.

p62 oligomers = target: T1, p62 oligomers (Homo sapiens, UniProt Q13501); experiment: p62 oligomerization assay by Western blot in HeLa cells; type: cell-based; conditions: 24 hours treatment, relative to vehicle control (DMSO)
T1 construct: endogenous in cells; host or cells: HeLa
T1 sequence (Q13501 whole entry): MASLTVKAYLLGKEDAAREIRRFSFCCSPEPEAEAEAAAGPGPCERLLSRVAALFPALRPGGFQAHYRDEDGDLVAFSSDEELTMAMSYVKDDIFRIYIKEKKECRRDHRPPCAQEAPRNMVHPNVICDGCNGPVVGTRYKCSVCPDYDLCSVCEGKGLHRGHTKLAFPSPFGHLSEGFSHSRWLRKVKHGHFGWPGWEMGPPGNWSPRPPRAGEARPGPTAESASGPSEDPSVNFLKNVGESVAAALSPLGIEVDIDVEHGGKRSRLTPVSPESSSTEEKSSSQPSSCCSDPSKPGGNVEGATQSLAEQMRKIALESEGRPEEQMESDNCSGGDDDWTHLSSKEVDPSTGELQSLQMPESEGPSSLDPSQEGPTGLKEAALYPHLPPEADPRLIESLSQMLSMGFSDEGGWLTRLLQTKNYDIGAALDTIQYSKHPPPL
Method: as §1, §2, §3, §4
HeLa cells were treated with compounds for 24 hours to evaluate the effect of these compounds on p62 oligomerisation activity. The resulting changes in levels of p62 oligomers were assessed by Western blotting, as described in experimental procedures. The fold change of p62 oligomer levels induced by compound treatment relative to vehicle control (DMSO) was determined and summarized in Table 8. Specifically, FIGS. 2A-C show Western blot images and their corresponding quantification showing the levels of high molecular weight (100-200 kDa) p62 oligomers by 24 hours compound treatments at listed concentrations, relative to vehicle control (DMSO) in HeLa cells. Protein loading consistencies was assessed by Ponceau staining (not shown).

Sequence of Recombinant p62 protein (Q13501 whole entry, species assumed): as the sequence (Q13501 whole entry) above

receptor occupancy at 100 µM (Recombinant p62 protein) [%]	Structure (SMILES)	further results
30 to 70	CC(O)CNCc1cccc2c1ccn2Cc1ccccc1 (stereo not shown) [Compound 3]	p62 puncta (fold change of p62 puncta levels) (p62 puncta): + (<2-fold change in p62 puncta levels relative to DMSO control)
30 to 70	CNCCOCc1cccc2c1ccn2Cc1ccccc1 [Compound 5, 2-((1-benzyl-1H-indol-4-yl)methoxy)-N-methylethan-1-amine]	p62 puncta (fold change of p62 puncta levels) (p62 puncta): + (<2-fold change in p62 puncta levels relative to DMSO control)
30 to 70	CC(C)NCC(O)COc1cccc2c1ccn2Cc1ccccc1 (stereo not shown) [Compound 6, 1-((1-benzyl-1H-indol-4-yl)oxy)-3-(isopropylamino)propan-2-ol]	LC3 lipidation (fold increase of LC3-II/LC3-I levels) (LC3 protein): + (<2-fold change in LC3-II/LC3-I relative to DMSO control); p62 oligomerization (fold change of p62 oligomer levels) (p62 oligomers): ++ (>2-fold change relative to DMSO control)
< 30	OC1CC(NCc2cccc3c2ccn3Cc2ccccc2)C1 (stereo not shown) [Compound 7]	p62 puncta (fold change of p62 puncta levels) (p62 puncta): + (<2-fold change in p62 puncta levels relative to DMSO control)
> 70	OCCNCc1cccc2c1ccn2-c1ccccc1 [Compound 9, 2-(((1-phenyl-1H-indol-4-yl)methyl)amino)ethan-1-ol]	LC3 lipidation (fold increase of LC3-II/LC3-I levels) (LC3 protein): + (<2-fold change in LC3-II/LC3-I relative to DMSO control); p62 oligomerization (fold change of p62 oligomer levels) (p62 oligomers): ++ (>2-fold change relative to DMSO control)
< 30	OCCNCc1cccc2c1ccn2Cc1ncc[nH]1 [Compound 22]	–
30 to 70	OCCNCc1cccc2c1ccn2CC1CCOCC1 [Compound 24]	–
< 30	OCCNCc1cccc2c1ccn2CC1CCNCC1 [Compound 25, 2-(((1-(piperidin-4-ylmethyl)-1H-indol-4-yl)methyl)amino)ethan-1-ol]	–
< 30	OCCNCc1cccc2c1ccn2CCc1cccnc1 [Compound 29]	–
30 to 70	OCCNCc1c(Cl)ccc2c1ccn2Cc1ccccc1 [Compound 36]	–
30 to 70	OCCNCc1ccc2c(ccn2Cc2ccccc2)c1 [Compound 38]	–
< 30	OCCNCc1cccc2c1CCN2Cc1ccccc1 [Compound 40, 2-(((1-benzylindolin-4-yl)methyl)amino)ethan-1-ol]	–
< 30	OCCNCc1cccc2c1CN(Cc1ccccc1)C2 [Compound 42, 2-(((2-benzylisoindolin-4-yl)methyl)amino)ethan-1-ol]	–
< 30	CC(C)NCCN1Cc2cccc(CNCCO)c2C1 [Compound 43]	–
30 to 70	O=C(CO)NCc1cccc2c1ccn2Cc1ccc(F)cc1 [Compound 46]	–
< 30	CC(C)OCCNCc1cccc2c1ccn2Cc1ccccc1 [Compound 47]	–
< 30	OCCNCc1ccnc2c1ccn2Cc1ccccc1 [Compound 50]	–
< 30	OCCNCc1cncc2c1ccn2Cc1ccccc1 [Compound 51]	–
< 30	O=C(CCO)NCc1cccc2c1ccn2Cc1ccccc1 [Compound 52]	–
< 30	O=C(NCCO)NCc1cccc2c1ccn2Cc1ccccc1 [Compound 53, 1-((1-benzyl-1H-indol-4-yl)methyl)-3-(2-hydroxyethyl)urea]	–
< 30	OCCNCc1cccc2c1ccn2CC1CCCCN1 (stereo not shown) [Compound 54]	p62 puncta (fold change of p62 puncta levels) (p62 puncta): ++ (>2-fold change in p62 puncta levels relative to DMSO control)
< 30	CC(C)(C)OC(=O)NCCOCCOCCOCCNCc1cccc2c1ccn2Cc1ccc(F)cc1 [Compound 84, tert-butyl (1-(1-(4-fluorobenzyl)-1H-indol-4-yl)-5,8,11-trioxa-2-azatridecan-13-yl)carbamate]	–
< 30	CC(=O)N1CCC(COCCNCc2cccc3c2ccn3Cc2ccccc2)CC1 [Compound 85, 1-(4-((2-(((1-benzyl-1H-indol-4-yl)methyl)amino)ethoxy)methyl)piperidin-1-yl)ethan-1-one]	–

Source: US20250243160A1, “INDOLE DERIVATIVES FOR TARGETING AUTOPHAGY” (Automera PTE. LTD, priority 2024, published 2025)
